Assay results taken from US20070009544A1, “Anti-allergic complex molecules” (priority 1999, published 2007).
Values after ≈ are worked out from the molar mass of the structure shown. “Also recorded” adds a separate entry of the source. Like-named read-outs stand apart in the source and are kept apart here. Numbered stars: 1 amine (or outer) side, 2 acyl side, 3 side chain; on linkers, the order of the positions; unused ones are H or OH. Bridge positions count the residues as written; N and C are the ends. Peptide text beside a SMILES is read from it. Suc = O=C(CCC(=O)[*:2])[*:1]

Legend:
[1] = test system: purified rat peritoneal mast cells; test: Histamine secretion from intact mast cells incubated with peptide alone (secretagogue side effect)
Experimental: (§1) Mast cells from the peritoneal cavity of C.R rats were isolated in Tyrode buffer (137 mM NaCl, 2.7 mM KC1, 1 mM MgCl2, 0.4 mM NaH2PO4, 20 mM Hepes, 1.0 mM CaCl2, 5.6 mM glucose, 1 mg/ml BSA, pH 7.2) and purified over a Ficoll gradient. A suspension of washed peritoneal cells was placed over a cushion of 30% Ficoll 400 (Pharmacia Biotech.) in buffered Saline containing 0.1% BSA; and centrifuged at 150O×g for 15 min. The purity of mast cells recovered from the bottom of the tube was >90%, as assessed by toluidine blue staining.
(§2) Purified mast cells (duplicated of 10^5 cells/0.5 ml) were incubated in Tyrode buffer with buffer or with desired concentrations of the indicated peptide for 2 h. at. 37° C. Histamine secretion was subsequently stimulated by the indicated concentration of compound 48/80 (Sigma) dissolved in Tyrode buffer. Incubation with compound 48/80 was carried out for 20 mm.in at 37° C. The reaction was terminated by placing the tubes on ice. The cells were sedimented by centrifugation at 150×g for 5 mm.in and the supernatants were collected. The amount of histamine release was determined as previously described (Aridor et al., 1990). Briefly, cell pellets were lysed using 0.1N NaOH and the volume of each sample was adjusted to 0.5 ml by H2O. Histamine content was assayed using the o-phtalaldehyde (OPT) fluorimetric method (Shore et al., 1959). Aliquots of 0.4 ml from the supernatants and cell lysates were incubated with 1.6 ml H20, 0.4 ml 1N NaOH and 0.1 ml of 10 mg/l ml OPT in methanol, for 4 min at room temperature. The reaction was terminated by the addition of 0.2 ml 3N HCl. Samples were centrifuged at 150×g for 5 min. and 0.2 ml samples were transferred to a 96 well plate. The histamine spectrofluorometric assay was run in microplates using a microplates reader (FL-600, Biotek instruments Winooski, Vt., USA). Samples were excited by light at 340 nm and read at 440 nm. Histamine release was calculated as the percentage of total histamine content (supernatant/pellet+supernatant) in each sample. Each data point represents the average of duplicate measurements. The spontaneously released histamine was subtracted.

[2] = test system: rat peritoneal mast cells; test: Inhibition of IgE dependent (DNP-specific IgE / DNP-BSA) histamine secretion; format: cell-based
Experimental: Peptides 2 and 2-Suc were also tested in vitro for their ability to block histamine secretion from rat peritoneal mast cells, in response to the IgE-dependent mechanism. The IgE dependent pathway is activated in response to an immunological trigger, brought about by aggregation of the high affinity receptors (FeεRI) for IgE, which are present on the cell surface of mast cells. This response involves crosslinking of cell bound IgE antibodies by the corresponding antigens (allergens).
Isolated, purified mast cells were sensitized in the presence of a monoclonal DNP-specific IgE antibody (1 μg/10^6 cells) for 1 hour at 37° C. The cells were washed 3 times and incubated for 2 hours with different concentrations of each peptide, followed by triggering with the antigen DNP-BSA (100 ng/ml) in the presence of Brain Extract (0.1 mg/ml), for 20 min. at 37° C. Placing the tubes in ice terminated the reaction. The amount of histamine released from the cells was monitored.

[3] = test system: purified rat peritoneal mast cells; format: cell-based; conditions: for Inhibitor (degree of inhibition of histamine secretion from mast cells): Table 1, incubation with different concentrations of each peptide, then induction of the allergic reaction
Outline: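 Intact purified rat peritoneal mast cells were incubated at 37° C with increasing peptide concentrations, then stimulated with 5 μg/ml compound 48/80 (maximal release). Histamine secretion is expressed as % of total cellular histamine after subtracting spontaneous release, as the mean of duplicates.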

[4] = test system: abdominal skin of C.R rats; test: Rat skin test: intradermal injection of peptide, then intradermal compound 48/80 or vehicle, wheal area; format: in vivo; conditions: for Mean Wheal Area ± STD, Vehicle: vehicle instead of compound 48/80
Outline: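 Peptide was injected intradermally (20 μl, in 10% DMSO/saline) at 20 or 200 μg; after 0.5 or 1 h, 20 μl compound 48/80 (0.1 mg/ml) or vehicle was injected intradermally at the same site. Wheal outlines were traced and areas measured by planimeter, reported as mean wheal area.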

[5] = Peptide solubility (remarks; assay medium, Tyrode buffer); format: physicochemical
[6] = test system: purified rat peritoneal mast cells
Experimental: as §1, §2

[7] = intradermal peptide 1 mg/ml, 0.5 hour before allergic induction
[8] = intradermal peptide 1 mg/ml, 0.5 hour before
[9] = intradermal peptide 1 mg/ml, 1 hour before allergic induction
[10] = intradermal peptide 1 mg/ml, 1 hour before
[11] = intradermal peptide 10 mg/ml, 0.5 hour before allergic induction
[12] = intradermal peptide 10 mg/ml, 0.5 hour before
[13] = intradermal peptide 10 mg/ml, 1 hour before allergic induction
[14] = intradermal peptide 10 mg/ml, 1 hour before
[15] = intradermal peptide 0.5 hour before allergic induction
[16] = intradermal peptide, lower dose or 1 hour before allergic induction

Mean Wheal Area ± STD, Vehicle [4, 8] | Mean Wheal Area ± STD, Vehicle [4, 10] | Mean Wheal Area ± STD, Vehicle [4, 12] | Mean Wheal Area ± STD, Vehicle [4, 14] | Molecule | Inhibitor (degree of inhibition of histamine secretion from mast cells) [3] | block of compound 48/80 induced allergic reaction in vivo, rat skin ([4]; intradermal peptide) | Mean Wheal Area ± STD, Compound 48/80 [4, 7] | Mean Wheal Area ± STD, Compound 48/80 [4, 9] | Mean Wheal Area ± STD, Compound 48/80 [4, 11] | Mean Wheal Area ± STD, Compound 48/80 [4, 13] | reduction of compound 48/80 induced allergic reaction [4, 15] | reduction of compound 48/80 induced allergic reaction [4, 16] | solubility [5] | other results
56.8 ± 24.1 (n = 11) mm^2 | 57.7 ± 23.2 (n = 12) mm^2 | 57.2 ± 21.7 (n = 10) mm^2 | 54.3 ± 25.8 (n = 12) mm^2 | CC(C)C[C@H](NC(=O)CNC(=O)[C@H](CS)NC(=O)[C@H](CCC(=O)O)NC(=O)[C@H](CCCCN)NC(=O)[C@H](CC(C)C)NC(=O)[C@H](CC(N)=O)NC(=O)[C@H](CC(N)=O)NC(=O)[C@H](CCCCN)NC(=O)[C@@H]1CCCN1C(=O)[C@H](C)NC(=O)[C@H](CC(C)C)NC(=O)[C@H](CC(C)C)NC(=O)[C@H](C)NC(=O)[C@H](CC(C)C)NC(=O)[C@H](CC(C)C)NC(=O)[C@@H](NC(=O)[C@H](C)NC(=O)[C@@H]1CCCN1C(=O)[C@H](CC(C)C)NC(=O)[C@H](CC(C)C)NC(=O)[C@H](C)NC(=O)[C@@H](NC(=O)[C@H](C)NC(=O)[C@H](C)NC(=O)CCC(=O)O)C(C)C)C(C)C)C(=O)N[C@@H](Cc1ccc(O)cc1)C(=O)O [Peptide 2-Suc] (Suc-AAVALLPAVLLALLAPKNNLKECGLY-OH; C-terminus assumed) | +++ (+++ Potent inhibitor (>85% inhibition)) | less effective than peptide 2 | 93.4 ± 32.0 (n = 11) mm^2 | 89.3 ± 30.1 (n = 12) mm^2 | 73.8 ± 28.7 (n = 10) mm^2 | 78.1 ± 28.3 (n = 12) mm^2 | significantly reduced the wheal | had no effect | more soluble in the assay medium, as compared to peptide 2 | Secretagogue (histamine secretion following incubation of mast cell with different concentrations of each peptide) ([1]; Table 1, peptide alone, no allergen): −; histamine secretion from mast cells on incubation with increasing concentrations of peptide alone ([1]; no additional allergen): did not induce histamine secretion; also recorded: no stimulatory effect; inhibition of IgE induced histamine secretion ([2]; 600 μg/ml peptide, DNP-BSA 100 ng/ml): 90%; block of histamine secretion activated by an immunological trigger ([2]; DNP-specific IgE, DNP-BSA): effectively block histamine secretion; IC50, compound 48/80 induced histamine secretion [3]: 200 µg/mL (≈ 72 µM); maximal inhibition of compound 48/80 induced histamine secretion ([3]; 600 μg/ml peptide, compound 48/80 concentration not given): 80%
 |  |  |  | VTVLALGALAGVGVGPKNNLKECGLY [WALL010] |  |  |  |  |  |  |  |  |  | Secretagogue (histamine secretion following incubation of mast cell with different concentrations of each peptide) [6]: +; histamine secretion from mast cells on incubation with increasing concentrations of peptide alone [6]: resulted in histamine secretion; maximal inhibition of compound 48/80 induced histamine release ([3]; 200 μg/ml peptide): 16.7%
61.4 ± 30.9 (n = 5) mm^2 | 54.6 ± 12.1 (n = 6) mm^2 | 58.8 ± 29.6 (n = 5) mm^2 | 45.0 ± 7.9 (n = 6) mm^2 | CC(C)C[C@@H]1NC(=O)CNC(=O)[C@H](CS)NC(=O)[C@H](CCC(=O)O)NC(=O)[C@H](CCCCN)NC(=O)[C@H](CC(C)C)NC(=O)[C@H](CC(N)=O)NC(=O)[C@H](CC(N)=O)NC(=O)[C@@H](NC(=O)[C@@H]2CCCN2C(=O)[C@H](C)NC(=O)[C@H](CC(C)C)NC(=O)[C@H](CC(C)C)NC(=O)[C@H](C)NC(=O)[C@H](CC(C)C)NC(=O)[C@H](CC(C)C)NC(=O)[C@@H](NC(=O)[C@H](C)NC(=O)[C@@H]2CCCN2C(=O)[C@H](CC(C)C)NC(=O)[C@H](CC(C)C)NC(=O)[C@H](C)NC(=O)[C@@H](NC(=O)[C@H](C)NC(=O)[C@H](C)N)C(C)C)C(C)C)CCCCNC(=O)[C@H](Cc2ccc(O)cc2)NC1=O [Peptide 2-Cyc] (H-AAVALLPAVLLALLAPKNNLKECGLY; lactam 17-C; N-terminus assumed) | + (+ Poor inhibitor (<50% inhibition)) | less effective than peptide 2 | 104.4 ± 45.8 (n = 5) mm^2 | 84.5 ± 29.7 (n = 6) mm^2 | 82.6 ± 50.6 (n = 5) mm^2 | 75.3 ± 28.4. (n = 6) mm^2 | significant decrease in wheal area | had no effect | very poor solubility | side effects of histamine secretion in mast cells, peptide alone ([1]; at a concentration of 100 μg/ml): only minor side effects of histamine secretion; effect on compound 48/80 induced histamine secretion ([3]; range of peptide concentrations tested): only limited potential to block compound 48/80 induced histamine secretion
